Read-outs that look alike come from different tables or passages of the source.
What was measured:
[1] = test system: HIV pseudotyped virus (NL4-3 provirus), M184V; assay type: cell-based; settings: PSV assay; U373 cells expressing human CD4 and CXCR4 or CCR5; luciferase signal after 3 days of culture
[2] = test system: HIV pseudotyped virus (NL4-3 provirus), WT; assay: PSV assay (pseudotyped virus assay), WT; settings: U373 cells expressing human CD4 and CXCR4 or CCR5, luciferase signal after 3 days of culture
From the text: A pseudotyped virus assay (PSV) was used to assess the potency of the HIV inhibitor. Replication defective virus was produced by co-transfection of a plasmid containing an NL4-3 provirus [containing a mutation in the envelope open reading frame (ORF) and a luciferase reporter gene replacing the nef ORF] and a CMV-promoter expression plasmid containing an ORF for various HIV gp160 envelope clones. The harvested virus was stored at −80 C in small aliquots and the titer of the virus measured to produce a robust signal for antiviral assays.
The PSV assay was performed by using U373 cells stably transformed to express human CD4, the primary receptor for HIV entry and either human CXCR4 or human CCR5 which are the co-receptors required for HIV entry as target cells for infection. […] This dose-range was applied to U373 cells and the pre-made pseudotyped virus added. The amount of luciferase signal produced after 3 days of culture was used to reflect the level of pseudotyped virus infection. An IC50, or the concentration of inhibitor required to reduce PSV infection by 50% from the infection containing no inhibitor was calculated. […] IC50 values were determined from a 10 point dose response curve using 3-4-fold serial dilution for each compound, which spans a concentration range >1000 fold.

[3] = Human immunodeficiency virus 1, NL43, in Homo sapiens, 72 h, read-out: WT IC50 (μM), PSV assay

SMILES | IC50 [1] | IC50 [2, 3] | IC50 ([2]; read-out: WT IC50, PSV assay)
C#C[C@]1(CO)O[C@@H](n2cnc3c(N)nc(F)nc32)C[C@@H]1OC(=O)NCC(=O)OCC [Example 25, ethyl ((((2R,3S,5R)-5-(6-amino-2-fluoro-9H-purin-9-yl)-2-ethynyl-2-(hydroxymethyl)tetrahydrofuran-3-yl)oxy)carbonyl)glycinate] | 1260 nM | 1.18 µM | –
C#C[C@]1(COC(=O)OC(COC(=O)CCCCCCCC)COC(=O)CCCCCCCC)O[C@@H](n2cnc3c(N)nc(F)nc32)C[C@@H]1O [Example 9, 2-(((((2R,3S,5R)-5-(6-amino-2-fluoro-9H-purin-9-yl)-2-ethynyl-3-hydroxytetrahydrofuran-2-yl)methoxy)carbonyl)oxy)propane-1,3-diyl dinonanoate] | 22.1 nM | 0.0049 µM | –
C#C[C@]1(CO)O[C@@H](n2cnc3c(NC(=O)OC(COCCCCC)COC(=O)CCCC)nc(F)nc32)C[C@@H]1O (single isomer, unassigned) [Example 37] | 32.4 nM | 0.0095 µM | –
C#C[C@]1(CO)O[C@@H](n2cnc3c(NC(=O)OC(COCCCCCCCCC)COC(=O)CCCCCCCC)nc(F)nc32)C[C@@H]1O (single isomer, unassigned) [Example 36] | 22.9 nM | – | 0.0085 µM
C#C[C@]1(COC(=O)OCc2ccc(OC(=O)CCCCCCCCCCCCC)cc2)O[C@@H](n2cnc3c(N)nc(F)nc32)C[C@@H]1O [Example 13, 4-((((((2R,3S,5R)-5-(6-amino-2-fluoro-9H-purin-9-yl)-2-ethynyl-3-hydroxytetrahydrofuran-2-yl)methoxy)carbonyl)oxy)methyl)phenyl tetradecanoate] | 17.8 nM | 0.0072 µM | –
C#C[C@]1(CO)O[C@@H](n2cnc3c(NC(=O)OC(COCCCCCCCCC)COC(=O)CCCCCCCC)nc(F)nc32)C[C@@H]1O (single isomer, unassigned) [Example 35] | 33.1 nM | 0.0112 µM | –
C#C[C@]1(COC(=O)OCc2ccc(OC(=O)CCCCCCCCCCCCCCCCCCC)cc2)O[C@@H](n2cnc3c(N)nc(F)nc32)C[C@@H]1O [Example 14, 4-((((((2R,3S,5R)-5-(6-amino-2-fluoro-9H-purin-9-yl)-2-ethynyl-3-hydroxytetrahydrofuran-2-yl)methoxy)carbonyl)oxy)methyl)phenyl icosanoate] | 2410 nM | 1.55 µM | –
C#C[C@]1(CO)O[C@@H](n2cnc3c(N)nc(F)nc32)C[C@@H]1OC(=O)NC(C)(C)C [Example 23, (2R,3S,5R)-5-(6-amino-2-fluoro-9H-purin-9-yl)-2-ethynyl-2-(hydroxymethyl)tetrahydrofuran-3-yl tert-butylcarbamate] | > 25000 nM | > 25 µM | –
C#C[C@]1(CO)O[C@@H](n2cnc3c(N)nc(F)nc32)C[C@@H]1OC(=O)N(CC)CC [Example 21, (2R,3S,5R)-5-(6-amino-2-fluoro-9H-purin-9-yl)-2-ethynyl-2-(hydroxymethyl)tetrahydrofuran-3-yl diethylcarbamate] | > 25000 nM | 14.7 µM | –
C#C[C@]1(CO)O[C@@H](n2cnc3c(N)nc(F)nc32)C[C@@H]1OC(=O)NC1CC1 [Example 24, (2R,3S,5R)-5-(6-amino-2-fluoro-9H-purin-9-yl)-2-ethynyl-2-(hydroxymethyl)tetrahydrofuran-3-yl cyclopropylcarbamate] | 3740 nM | 1.48 µM | –
C#C[C@]1(CO)O[C@@H](n2cnc3c(NC(=O)OC(COC(=O)CCCC)COC(=O)CCCC)nc(F)nc32)C[C@@H]1O [Example 32, 2-(((9-((2R,4S,5R)-5-ethynyl-4-hydroxy-5-(hydroxymethyl)tetrahydrofuran-2-yl)-2-fluoro-9H-purin-6-yl)carbamoyl)oxy)propane-1,3-diyl dipentanoate] | 26.9 nM | 0.0075 µM | –
C#C[C@]1(CO)O[C@@H](n2cnc3c(N)nc(F)nc32)C[C@@H]1OC(=O)NCC(=O)OCCCCC [Example 27, pentyl ((((2R,3S,5R)-5-(6-amino-2-fluoro-9H-purin-9-yl)-2-ethynyl-2-(hydroxymethyl)tetrahydrofuran-3-yl)oxy)carbonyl)glycinate] | > 25000 nM | > 25 µM | –
C#C[C@]1(COC(=O)NC)O[C@@H](n2cnc3c(N)nc(F)nc32)C[C@@H]1O [Example 5, ((2R,3S,5R)-5-(6-amino-2-fluoro-9H-purin-9-yl)-2-ethynyl-3-hydroxytetrahydrofuran-2-yl)methyl methylcarbamate] | > 25000 nM | 15.4 µM | –
C#C[C@]1(CO)O[C@@H](n2cnc3c(N)nc(F)nc32)C[C@@H]1OC(=O)NCCCCCCCCCCCCCCCCCC [Example 16, (2R,3S,5R)-5-(6-amino-2-fluoro-9H-purin-9-yl)-2-ethynyl-2-(hydroxymethyl)tetrahydrofuran-3-yl octadecylcarbamate] | 22400 nM | 15 µM | –
C#C[C@]1(CO)O[C@@H](n2cnc3c(NC(=O)OC4COC(=O)CCCCCCCCCCCC(=O)OC4)nc(F)nc32)C[C@@H]1O [Example 34, 6,18-dioxo-1,5-dioxacyclooctadecan-3-yl (9-((2R,4S,5R)-5-ethynyl-4-hydroxy-5-(hydroxymethyl)tetrahydrofuran-2-yl)-2-fluoro-9H-purin-6-yl)carbamate] | 67.8 nM | 0.0132 µM | –
C#C[C@]1(COC(=O)NC(C)C)O[C@@H](n2cnc3c(N)nc(F)nc32)C[C@@H]1O [Example 6, ((2R,3S,5R)-5-(6-amino-2-fluoro-9H-purin-9-yl)-2-ethynyl-3-hydroxytetrahydrofuran-2-yl)methyl isopropylcarbamate] | 1080 nM | 0.56 µM | –
C#C[C@]1(CO)O[C@@H](n2cnc3c(N)nc(F)nc32)C[C@@H]1OC(=O)N1CCC(C)CC1 [Example 22, (2R,3S,5R)-5-(6-amino-2-fluoro-9H-purin-9-yl)-2-ethynyl-2-(hydroxymethyl)tetrahydrofuran-3-yl 4-methylpiperidine-1-carboxylate] | > 25000 nM | 11.7 µM | –
C#C[C@]1(CO)O[C@@H](n2cnc3c(N)nc(F)nc32)C[C@@H]1OC(=O)OC(COC(=O)CCCC)COC(=O)CCCC [Example 29, 2-(((((2R,3S,5R)-5-(6-amino-2-fluoro-9H-purin-9-yl)-2-ethynyl-2-(hydroxymethyl)tetrahydrofuran-3-yl)oxy)carbonyl)oxy)propane-1,3-diyl dipentanoate] | 28.3 nM | 0.0077 µM | –
C#C[C@]1(COC(=O)NC(C)(C)C)O[C@@H](n2cnc3c(N)nc(F)nc32)C[C@@H]1O [Example 8, ((2R,3S,5R)-5-(6-amino-2-fluoro-9H-purin-9-yl)-2-ethynyl-3-hydroxytetrahydrofuran-2-yl)methyl tert-butylcarbamate] | 1130 nM | 0.142 µM | –
C#C[C@]1(CO)O[C@@H](n2cnc3c(NC(=O)OC(COC(=O)CCCCCCCC)COC(=O)CCCCCCCC)nc(F)nc32)C[C@@H]1O [Example 33, 2-(((9-((2R,4S,5R)-5-ethynyl-4-hydroxy-5-(hydroxymethyl)tetrahydrofuran-2-yl)-2-fluoro-9H-purin-6-yl)carbamoyl)oxy)propane-1,3-diyl dinonanoate] | 24.3 nM | 0.0054 µM | –
C#C[C@]1(CO)O[C@@H](n2cnc3c(NC(=O)OC(COCCCCC)COC(=O)CCCC)nc(F)nc32)C[C@@H]1O (single isomer, unassigned) [Example 38] | 23.4 nM | – | 0.007 µM
C#C[C@]1(CO)O[C@@H](n2cnc3c(N)nc(F)nc32)C[C@@H]1OC(=O)NCC(=O)OC(C)(C)C [Example 26, tert-butyl ((((2R,3S,5R)-5-(6-amino-2-fluoro-9H-purin-9-yl)-2-ethynyl-2-(hydroxymethyl)tetrahydrofuran-3-yl)oxy)carbonyl)glycinate] | 17300 nM | 16.1 µM | –
C#C[C@]1(COC(=O)NCCCCCCCC)O[C@@H](n2cnc3c(N)nc(F)nc32)C[C@@H]1O [Example 2, ((2R,3S,5R)-5-(6-amino-2-fluoro-9H-purin-9-yl)-2-ethynyl-3-hydroxytetrahydrofuran-2-yl)methyl octylcarbamate] | > 25000 nM | > 25 µM | –
C#C[C@]1(COC(=O)NCCCCCCCCCCCCCCCCCC)O[C@@H](n2cnc3c(N)nc(F)nc32)C[C@@H]1O [Example 1, ((2R,3S,5R)-5-(6-amino-2-fluoro-9H-purin-9-yl)-2-ethynyl-3-hydroxytetrahydrofuran-2-yl)methyl octadecylcarbamate] | > 25000 nM | > 25 µM | –
C#C[C@]1(CO)O[C@@H](n2cnc3c(N)nc(F)nc32)C[C@@H]1OC(=O)NCCCCCCCC [Example 17, (2R,3S,5R)-5-(6-amino-2-fluoro-9H-purin-9-yl)-2-ethynyl-2-(hydroxymethyl)tetrahydrofuran-3-yl octylcarbamate] | > 15000 nM | > 15 µM | –
C#C[C@]1(CO)O[C@@H](n2cnc3c(N)nc(F)nc32)C[C@@H]1OC(=O)NCCCCC [Example 19, (2R,3S,5R)-5-(6-amino-2-fluoro-9H-purin-9-yl)-2-ethynyl-2-(hydroxymethyl)tetrahydrofuran-3-yl pentylcarbamate] | 9440 nM | 1.77 µM | –
C#C[C@]1(CO)O[C@@H](n2cnc3c(N)nc(F)nc32)C[C@@H]1OC(=O)NCCCCCCCCCCCC [Example 15, (2R,3S,5R)-5-(6-amino-2-fluoro-9H-purin-9-yl)-2-ethynyl-2-(hydroxymethyl)tetrahydrofuran-3-yl dodecylcarbamate] | > 15000 nM | > 15 µM | –
C#C[C@]1(COC(=O)NCCCCCCCCCCCC)O[C@@H](n2cnc3c(N)nc(F)nc32)C[C@@H]1O [Example 3, ((2R,3S,5R)-5-(6-amino-2-fluoro-9H-purin-9-yl)-2-ethynyl-3-hydroxytetrahydrofuran-2-yl)methyl dodecylcarbamate] | 8170 nM | 2.01 µM | –

From patent US20220298160A1, “COMPOUNDS USEFUL IN HIV THERAPY” (priority 2019, published 2022)
